Results on nine compounds are retold here after PubChem BioAssay (NCI).

Assay in all cases: growth of human tumour cells (NCI), 48 h
The test system of experiment [1] is A549 NSCLC.
Experiment [2] relates to PC-3 prostate.
Experiment [3] has as its system 786-0 renal.
Experiment [4] concerns OVCAR-8 ovarian.
Experiment [5] deals with HOP-62 NSCLC.
The test system of experiment [6] is SK-MEL-28 melanoma.
Experiment [7] deals with SN12C renal.
In experiment [8] the test system is K-562 leukemia.
Experiment [9] deals with ACHN renal.
Experiment [10] deals with BT-549 breast.

Where “and” joins values, the source holds several entries; their conditions need not be identical. Equal values may be shown once.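 Dose response: 5 concentrations. Exposure: 48 h. Format: 96-well plates. Endpoint: linear interpolation; highest concentration if not reached. Here, GI50 denotes the concentration required for 50% inhibition of growth. Definition used: TGI = concentration required for complete inhibition of growth.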 A value given as a limit tells only on which side of the number the result lay.

Regarding `Cc1ccc2c(c1)O/C(=C\c1ccc([N+](=O)[O-])o1)C2=O`, the GI50 was 2.74 µM in experiment [1]; 1.75 µM in experiment [2]; 2.15 µM in [3]; 1.4 µM in [4]; 2.27 µM in experiment [5]; 2.15 µM in [6]. Further, the GI50 is 1.92 µM in experiment [7], 0.388 µM in experiment [8], 1.19 µM in [9] and 1.82 µM in [10]. Further, the TGI in experiment [1] was 8.53 µM; in [2], 5.15 µM; in experiment [3], 4.72 µM; in experiment [4], 6.57 µM; in experiment [5] it was 6.48 µM; in [6], 4.89 µM. The TGI in experiment [7] stood at 4.96 µM; in experiment [8], 2.04 µM; in [9], 2.53 µM; in [10] it was 3.47 µM.

Consider `CC1SC(c2c(Cl)cccc2Cl)N(NC(=O)C(O)c2ccccc2)C1=O` (stereo not given), for which the GI50 was 94 µM in [1]; 39.7 µM in experiment [2]; > 100 µM in experiment [3]; > 100 µM in experiment [4]; 89.3 µM in experiment [5]; > 100 µM in experiment [6]. Moreover, the GI50 in [7] is > 100 µM; in experiment [8], 39.9 µM; in experiment [9], 92.2 µM; in [10] it was > 100 µM. Besides, the TGI in experiment [1], in experiment [2], in experiment [3], in [4], in experiment [5] and in [6] was > 100 µM each time. Further, the TGI in experiment [7], in [8], in [9] and in experiment [10] was > 100 µM each time.

For the compound `COc1ccc(Cl)cc1NC(=O)c1cccc([N+](=O)[O-])c1O`, the TGI in experiment [1] was 45.2 µM; in experiment [2], > 100 µM; in experiment [3], 58.7 µM; in [4], > 100 µM; in experiment [5] it was 21.4 µM; in experiment [6], > 91.4 µM. Moreover, the TGI in experiment [7] was > 75.3 µM; in experiment [8] it was > 100 µM; in experiment [9] it was > 70.4 µM; in experiment [10] it was 27.4 µM.

For the compound `C=CCC(N[C@H](CO)c1ccccc1)c1cn(S(=O)(=O)c2ccc(C)cc2)c2ccccc12` (stereo not given in full), the GI50 in experiment [1] is 12.7 µM; in experiment [2], 17.8 µM; in experiment [3] it was > 100 µM; in experiment [4], 10.8 µM; in [5], 16.8 µM; in experiment [6] it was 41.6 µM. In addition, the GI50 in [7] was 16.9 µM; in experiment [8], 2.72 µM; in experiment [9], 18 µM; in experiment [10], 20.5 µM. The TGI is 32.4 µM in experiment [1]; 77.1 µM in [2]; > 100 µM in experiment [3]; 29.5 µM in [4]; 33.5 µM in experiment [5]; > 100 µM in experiment [6]. In addition, the TGI in [7] amounted to 32.2 µM; in [9], 45.2 µM; in experiment [10], 46.5 µM.

With `CC(=O)OC1CCC2(C)C(=CCC3C4CCC5(OC6CC(C)CN(C(C)=O)C6C5C)C(C)=C4C(=O)C32)C1` (stereo not given), the TGI in experiment [1] was 47.7 µM; in [2], 28.6 µM; in experiment [3], 72.6 µM; in [4] it was 46.1 µM; in experiment [5], 46.4 µM; in [6], > 100 µM. In addition, the TGI in experiment [7] stood at 46.5 µM; in experiment [8], 52.7 µM; in [9], 67 µM; in experiment [10] it was 28.6 µM.

Regarding `O=C(NNS(=O)(=O)c1ccc(F)cc1)c1cccnc1Nc1ccc(Cl)cc1Cl`, the GI50 in experiment [1] is 17.2 µM; in [2] it was 14.8 µM; in experiment [3], 23 µM; in experiment [4], 26.9 µM; in experiment [5], 30.9 µM; in [6] it was 89.2 µM. Further, the GI50 in experiment [7] is 17.6 µM; in [8] it was 20.1 µM; in experiment [9], 46.1 µM; in experiment [10], 36 µM. Moreover, the TGI was 41 µM in experiment [1]; 32.1 µM in [2]; 53.6 µM in experiment [3]; > 100 µM in [4]; 84.5 µM in experiment [5]; > 100 µM in experiment [6]. For the same compound, the TGI in experiment [7] was 31.7 µM; in experiment [8] it was 83.2 µM; in experiment [9] it was > 100 µM; in experiment [10], > 100 µM.

For the compound `CC(C)(C)[Si](C)(C)OCC1C=CC(n2cnc3c(N)ncnc32)O1` (stereo not given), the TGI in experiment [1], in experiment [2], in [3], in experiment [4], in experiment [5] and in [6] was > 100 µM each time. In addition, the TGI in [7] was > 100 µM; in experiment [8], 54 µM; in experiment [9], > 100 µM; in [10] it was > 54.7 µM.

Turning to `C#Cc1cccc(Oc2ccc(NC(=O)CCl)cc2)c1`, the GI50 in [1] is > 82.5 µM; in [2], > 82.5 µM; in experiment [3], > 82.5 µM; in experiment [4], 64.3 µM; in experiment [5], > 82.5 µM; in [6], > 82.5 µM. Moreover, the GI50 is > 82.5 µM in [7], 34.4 µM in experiment [8], > 82.5 µM in [9] and 37.2 µM in [10]. The TGI in experiment [1], in experiment [2], in experiment [3], in experiment [4], in experiment [5] and in [6] was > 82.5 µM each time. Also, the TGI in experiment [7], in [8], in [9] and in experiment [10] was > 82.5 µM in each case.

Consider `Cc1cc(C)cc(Nc2ccc([N+](=O)[O-])c(NCCN3CCOCC3)n2)c1`, for which the GI50 in experiment [1] was 0.00286 µM and 0.02 µM; in experiment [2] it was 0.00177 µM and 0.0106 µM; in [4] it was 0.006 µM and 0.0368 µM; in [6], 0.672 µM and 2.75 µM; in [7], 0.0706 µM; in experiment [9], 0.0143 µM and 0.012 µM. The TGI in experiment [1] is > 100 µM; in [2], > 100 µM; in experiment [3], 18.8 µM; in [4], > 100 µM; in experiment [5], 44.9 µM; in [6], > 100 µM. The TGI in [7], in [8], in experiment [9] and in experiment [10] was > 100 µM throughout.
